Like-named read-outs stand apart in the source and are kept apart here.
Test system: cell lines from the Cancer Cell Line Encyclopedia (CCLE)
Experiment: High-throughput cell viability assay, CCLE cell line panel (n = 356)
Assay type: cell-based, human
Conditions: Homo sapiens
Experimental: Cell lines were partitioned into sensitive and insensitive groups based on compound potency (IC50). […] All other cell lines were obtained from ATCC (American Type Culture Collection), DSMZ (Deutsche Sammlung von Mikroorganismen und Zellkulturen), and HSRRB (Health Science Research Resources Bank) and cultured in RPMI or Dulbecco's modified Eagle's medium plus 10% FBS (Invitrogen, Carlsbad, CA) at 37°C, 5% CO2.

Question: With `COc1cc2c(cc1OC(C)C)[C@H](c1ccc(Cl)cc1)N(c1ccc(N(C)C[C@H]3CC[C@H](N4CCNC(=O)C4)CC3)cc1)C(=O)C2` [NVP-CFC218] as the molecule, how does the IC50 (A 172, read-out: NVP- CFC218 IC50 (µM), cell line A172, central_nervous_system, TP53 WT) read?
Answer: > 8 µM

Question: And the IC50 (A204, A-204, TP53 WT)?
Answer: 2.18 µM

Question: And the IC50 (A2780, A2780, TP53 WT)?
Answer: 2.24 µM

Question: What about the IC50 (A-375, A-375, TP53 WT) of the same molecule?
Answer: 2.65 µM

Question: What about the IC50 (ACHN, TP53 WT) of the same molecule?
Answer: 2.03 µM

Question: And the IC50 (AMO1, AMO-1, TP53 WT)?
Answer: 2.01 µM

Question: What about the IC50 (AN3-CA, AN3 CA, TP53 MUT) of the same molecule?
Answer: > 8 µM

Question: And the IC50 (ASPC1, AsPC-1, TP53 MUT)?
Answer: > 8 µM

Question: And the IC50 (AU565, AU565, TP53 MUT)?
Answer: > 8 µM

Question: What about the IC50 (BCPAP, B-CPAP, TP53 MUT) of the same molecule?
Answer: > 8 µM

Question: And the IC50 (BDCM, TP53 WT)?
Answer: 0.7 µM

Question: And the IC50 (BEN, TP53 MUT)?
Answer: > 8 µM

Question: And the IC50 (BFTC-905, BFTC-905, TP53 MUT)?
Answer: > 8 µM

Question: What about the IC50 (BFTC-909, BFTC-909, TP53 MUT) of the same molecule?
Answer: > 8 µM

Question: And the IC50 (BHY, TP53 MUT)?
Answer: > 8 µM

Question: And the IC50 (BICR 6, TP53 MUT)?
Answer: > 8 µM

Question: And the IC50 (BL-41, BL-41, TP53 MUT)?
Answer: > 8 µM

Question: What about the IC50 (BL-70, TP53 MUT) of the same molecule?
Answer: > 8 µM

Question: And the IC50 (BT-20, BT-20, TP53 MUT)?
Answer: > 8 µM

Question: And the IC50 (BT-474, BT-474, TP53 MUT)?
Answer: > 8 µM

Question: And the IC50 (BT-549, BT-549, TP53 MUT)?
Answer: > 8 µM

Question: What about the IC50 (BXPC-3, BxPC-3, TP53 MUT) of the same molecule?
Answer: > 8 µM

Question: What about the IC50 (CAKI-2, Caki-2, TP53 WT) of the same molecule?
Answer: 3.63 µM

Question: And the IC50 (CAL-12T, TP53 MUT)?
Answer: > 8 µM

Question: And the IC50 (CAL-78, TP53 MUT)?
Answer: > 8 µM

Question: And the IC50 (CAL-85-1, read-out: NVP- CFC218 IC50 (µM), cell line CAL-85-1, breast, TP53 MUT)?
Answer: > 8 µM

Question: And the IC50 (CAMA-1, read-out: NVP- CFC218 IC50 (µM), cell line CAMA-1, breast, TP53 MUT)?
Answer: > 8 µM

Question: What about the IC50 (CAPAN-1, Capan-1, TP53 MUT) of the same molecule?
Answer: > 8 µM

Question: And the IC50 (CAS-1, TP53 MUT)?
Answer: > 8 µM

Question: What about the IC50 (CFPAC-1, CFPAC-1, TP53 MUT) of the same molecule?
Answer: > 8 µM

Question: And the IC50 (CHL-1, CHL-1, TP53 MUT)?
Answer: > 8 µM

Question: And the IC50 (CHP-212, CHP-212, TP53 WT)?
Answer: 1.36 µM

Question: What about the IC50 (CMK-11-5, CMK-11-5, TP53 MUT) of the same molecule?
Answer: > 8 µM

Question: And the IC50 (COLO 205, COLO 205, TP53 MUT)?
Answer: > 8 µM

Question: And the IC50 (COLO 792, TP53 WT)?
Answer: > 8 µM

Question: And the IC50 (COLO-679, COLO-679, TP53 WT)?
Answer: 0.91 µM

Question: What about the IC50 (COLO-741, COLO 741, TP53 MUT) of the same molecule?
Answer: > 8 µM

Question: What about the IC50 (COR-L23, COR-L23, TP53 WT) of the same molecule?
Answer: > 8 µM

Question: And the IC50 (COV318, COV318, TP53 MUT)?
Answer: > 8 µM

Question: And the IC50 (COV362, COV362, TP53 MUT)?
Answer: > 8 µM

Question: What about the IC50 (COV434, COV434, TP53 WT) of the same molecule?
Answer: 5.89 µM

Question: What about the IC50 (COV504, read-out: NVP- CFC218 IC50 (µM), cell line COV504, ovary, TP53 MUT) of the same molecule?
Answer: > 8 µM

Question: What about the IC50 (COV644, TP53 WT) of the same molecule?
Answer: > 8 µM

Question: And the IC50 (Calu-3, Calu-3, TP53 MUT)?
Answer: > 8 µM

Question: And the IC50 (Calu-6, Calu-6, TP53 MUT)?
Answer: > 8 µM

Question: What about the IC50 (Caov-3, Caov-3, TP53 MUT) of the same molecule?
Answer: > 8 µM

Question: And the IC50 (Capan-2, read-out: NVP- CFC218 IC50 (µM), cell line Capan-2, pancreas, TP53 WT)?
Answer: > 8 µM

Question: And the IC50 (ChaGo-K-1, ChaGo-K-1, TP53 MUT)?
Answer: > 8 µM

Question: And the IC50 (DB, TP53 MUT)?
Answer: > 8 µM

Question: What about the IC50 (DBTRG-05MG, TP53 WT) of the same molecule?
Answer: 4 µM

Question: What about the IC50 (DEL, TP53 MUT) of the same molecule?
Answer: > 8 µM

Question: And the IC50 (DK-MG, TP53 WT)?
Answer: 2.32 µM

Question: And the IC50 (DMS-53, DMS 53, TP53 MUT)?
Answer: > 8 µM

Question: What about the IC50 (DMS-114, DMS 114, TP53 MUT) of the same molecule?
Answer: > 8 µM

Question: And the IC50 (DOHH-2, DOHH-2, TP53 WT)?
Answer: 1.18 µM

Question: What about the IC50 (DU-145, DU 145, TP53 MUT) of the same molecule?
Answer: > 8 µM

Question: What about the IC50 (Daoy, TP53 MUT) of the same molecule?
Answer: > 8 µM

Question: And the IC50 (Detroit 562, Detroit 562, TP53 MUT)?
Answer: > 8 µM

Question: What about the IC50 (EB2, TP53 MUT) of the same molecule?
Answer: > 8 µM

Question: And the IC50 (EBC-1, EBC-1, TP53 MUT)?
Answer: > 8 µM

Question: And the IC50 (EFE-184, EFE-184, TP53 MUT)?
Answer: > 8 µM

Question: What about the IC50 (EFM-19, EFM-19, TP53 MUT) of the same molecule?
Answer: > 8 µM

Question: What about the IC50 (EFO-21, EFO-21, TP53 MUT) of the same molecule?
Answer: > 8 µM

Question: And the IC50 (EM-2, TP53 MUT)?
Answer: > 8 µM

Question: And the IC50 (ESS-1, read-out: NVP- CFC218 IC50 (µM), cell line ESS-1, endometrium, TP53 MUT)?
Answer: > 8 µM

Question: What about the IC50 (FU-OV-1, TP53 MUT) of the same molecule?
Answer: > 8 µM

Question: What about the IC50 (FaDu, TP53 MUT) of the same molecule?
Answer: > 8 µM

Question: And the IC50 (Fu97, FU97, TP53 MUT)?
Answer: > 8 µM

Question: And the IC50 (G-361, G-361, TP53 WT)?
Answer: 3.16 µM

Question: What about the IC50 (G-401, G-401, TP53 WT) of the same molecule?
Answer: 1.6 µM

Question: What about the IC50 (G-402, G-402, TP53 WT) of the same molecule?
Answer: 2.31 µM

Question: And the IC50 (GCIY, TP53 MUT)?
Answer: > 8 µM

Question: What about the IC50 (GI-1, TP53 MUT) of the same molecule?
Answer: > 8 µM

Question: What about the IC50 (GMS-10, GMS-10, TP53 MUT) of the same molecule?
Answer: > 8 µM

Question: And the IC50 (GP2d, TP53 WT)?
Answer: 3.45 µM

Question: And the IC50 (Granta-519, GRANTA-519, TP53 WT)?
Answer: 3.38 µM

Question: And the IC50 (H4, TP53 WT)?
Answer: 2.84 µM

Question: And the IC50 (HARA, TP53 MUT)?
Answer: > 8 µM

Question: What about the IC50 (HCC15, HCC-15, TP53 MUT) of the same molecule?
Answer: > 8 µM

Question: What about the IC50 (HCC70, HCC70, TP53 MUT) of the same molecule?
Answer: > 8 µM

Question: What about the IC50 (HCC78, HCC-78, TP53 MUT) of the same molecule?
Answer: > 8 µM

Question: What about the IC50 (HCC1500, HCC1500, TP53 WT) of the same molecule?
Answer: 4.89 µM

Question: And the IC50 (HCC1806, HCC1806, TP53 MUT)?
Answer: > 8 µM

Question: And the IC50 (HCC1954, HCC1954, TP53 MUT)?
Answer: > 8 µM

Question: And the IC50 (HCC4006, HCC4006, TP53 MUT)?
Answer: > 8 µM
